Results from article PMC11449324, “Functional comparison of human and murine equilibrative nucleobase transporter 1” (PLOS ONE, 2024).
Read-outs that look alike come from different tables or passages of the source.

How the values were obtained:
[1] = test system: HEK293-EV cells (ENBT1-deficient); test: Radiolabelled substrate uptake in empty vector HEK293-EV cells; type: cell-based, human; conditions: 2 seconds
Experimental: This is the minimum incubation time achievable with this oil-stop technique, and it was found in previous studies that these short incubation times were necessary to assess the kinetics of this transporter. The aqueous layer was removed via vacuum-powered aspirator, and the tube was washed with 1 mL of NMG buffer prior to removal of the oil layer. […] In transfected-HEK293 cell lines, total uptake was defined as uptake of radiolabeled substrate in cells overexpressing recombinant hENBT1 or mENBT1. […] This non-mediated component would include passive diffusion into the cells and radiolabelled substrate remaining extracellularly in the digested cell pellet after processing the samples. […] ENBT1-mediated uptake was calculated as total uptake minus the non-mediated uptake. Cell water volume (μL) was estimated by incubating cells with ^3H2O for 3 minutes, centrifuging the cells through the oil layer at ~10,000 g, assessing 100 μL of the supernatant for radioactive content, and then processing as described above. Total cellular water volume was determined from the ratio of the decays per minute of the cell pellet, to the decays per minute of the supernatant, allowing for inter-experimental normalization via calculation of picomoles of substrate accumulated per microliter of cell-associated water.

mENBT1 = target: T1, mENBT1 (Mus musculus, UniProt A2AVZ9); test: Inhibition of ENBT1-mediated substrate uptake in HEK293-mslc43a3 cells; type: cell-based
T1 construct: Oligonucleotides corresponding to the coding region of SLC43A3 (NM_001278201) or slc43a3 (NM_021398); expressed in transfected cells; HEK293-mslc43a3
T1 sequence (A2AVZ9 1-502): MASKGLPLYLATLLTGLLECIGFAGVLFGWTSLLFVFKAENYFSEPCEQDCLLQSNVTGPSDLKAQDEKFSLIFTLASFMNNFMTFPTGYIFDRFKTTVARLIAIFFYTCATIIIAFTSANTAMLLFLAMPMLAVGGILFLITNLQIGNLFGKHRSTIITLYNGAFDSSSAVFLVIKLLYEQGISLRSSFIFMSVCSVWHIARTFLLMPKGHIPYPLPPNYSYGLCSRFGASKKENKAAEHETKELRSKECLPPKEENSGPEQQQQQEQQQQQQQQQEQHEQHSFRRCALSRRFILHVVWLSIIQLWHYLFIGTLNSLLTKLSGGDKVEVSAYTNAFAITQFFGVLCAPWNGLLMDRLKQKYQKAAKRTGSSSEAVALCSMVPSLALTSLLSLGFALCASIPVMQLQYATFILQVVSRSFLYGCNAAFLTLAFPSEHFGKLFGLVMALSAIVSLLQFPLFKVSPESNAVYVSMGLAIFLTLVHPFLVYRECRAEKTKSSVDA
Experimental: Harvested cells were suspended in nominally sodium-free N-methyl-D-glucamine (NMG) buffer (140 mM NMG, 5 mM KCl, 4.2 mM KHCO3, 0.36 mM K2HPO4, 0.44 mM KH2PO4, 0.5 mM MgCl2, 1.3 mM CaCl2, 10 mM HEPES, pH 7.4), to minimize potential contribution of sodium-dependent concentrative nucleoside transporter-mediated uptake. Additionally, cells were incubated for 15 minutes at room temperature with 10 μM dipyridamole (DY), an equilibrative nucleoside transporter (ENT) inhibitor, to block equilibrative nucleoside transporter–mediated uptake. The substrate uptake assay was initiated by adding 250 μL cell suspension to 250 μL [^3H] labeled substrate, layered over 21:4 silicone:mineral oil (200 μL) in 1.5 mL microcentrifuge tubes (conducted at room temperature). The uptake reaction was terminated after 2 seconds by centrifugation of the cells through the oil layer at ~10,000 g. This is the minimum incubation time achievable with this oil-stop technique, and it was found in previous studies that these short incubation times were necessary to assess the kinetics of this transporter. The aqueous layer was removed via vacuum-powered aspirator, and the tube was washed with 1 mL of NMG buffer prior to removal of the oil layer. The resulting cell pellet was digested in 250 μL 1 M NaOH overnight (~16 hours), with 220 μL aliquots of digested cells assessed for radioactive content using standard liquid scintillation counting techniques in a Beckman Coulter LS6500 scintillation system (Brea, CA).
To assess the ability of compounds to inhibit substrate uptake, cells were incubated with the inhibitor for 15 minutes prior to initiating the uptake assay, or exposed to the cells simultaneously with the radiolabelled substrate. […] After subtraction of the non-mediated uptake component, the degree of inhibition was calculated as the ratio of cellular accumulation in the presence of test compound to that measured in its absence (X 100).
Each assay was repeated 5–6 times using independent cell isolations and reagent preparations. In addition, within each assay, there were two or three technical replicates (using the same reagents and cells) that were averaged to obtain a single data point. Nonlinear curves were fitted to data (presented as mean ± SD from the 5–6 independent experiments), and statistical analyses were done using GraphPad Prism 10 software. In all cases, if the P-value determined from a statistical test was less than 0.05, the null hypothesis was rejected and the alternative hypothesis was favoured. Significant differences between groups were assessed using either Student’s t-test or ordinary one- or two-way analysis of variance (ANOVA) followed by a post hoc Šidák multiple comparison test, as appropriate. For influx and cell viability analyses, significant differences in Km and EC50 value, respectively, between the hENBT1 and mENBT1 data sets, were determined by the extra sum-of-squares F test. For inhibition analyses, the Ki values were determined from the IC50 values using the specified substrate concentration [S], based on the Cheng-Prusoff equation Ki = IC50/(1 + [S]/Km) and experimentally obtained Km values.

Compound	uptake of radiolabelled substrate [1]	Ki (mENBT1; HEK293-mslc43a3, 30 μM [3H]adenine, 2 seconds, Cheng-Prusoff, read-out: Ki for inhibition of ENBT1-mediated [3H]adenine uptake) [mM]	inhibition of ENBT1-mediated [3H]adenine uptake (mENBT1; at highest concentration of 6-MP tested (1 mM), HEK293-mslc43a3)	Ki relative to its Km for the transporter (mENBT1; mENBT1) [fold]	Ki (mENBT1) [mM]	inhibition of ENBT1-mediated [14C]6-MP uptake (mENBT1; at 1 mM adenine, HEK293-mslc43a3)
Sc1ncnc2nc[nH]c12 [6-MP, 6-Mercaptopurine]	minimal uptake	7.4 ± 1.3	complete inhibition was not obtained	30	–	–
Nc1ncnc2[nH]cnc12 [adenine, Adenine]	minimal uptake	–	–	–	0.051 ± 0.013	near complete inhibition
